Measured values reported in US12421257B2, “Compositions and methods for inhibiting group II intron RNA” (YALE UNIVERSITY, priority 2018, dated 2025).
In brackets after ≈: the same amount, converted by molar mass.

Tests used:
[1] = test system: ai5γ group II intron (D135 ribozyme); test: Fluorescent D135 ribozyme cleavage assay (IC50); type: biochemical, Saccharomyces cerevisiae; conditions: D135 ribozyme cleavage of substrate 17/2 DL, 100 mM MgCl2, 500 mM KCl, 37° C., 10 minutes
Description: The D135 ribozyme (Su et al., 2005, Nucleic Acids Res, 33:6674-6687), fluorescently labeled oligo substrate 17/2 DL (FIG. 1A-FIG. 1D) (both at 20 nM final concentrations in 50 mM MOPS, pH 7.0, 100 mM MgCl2, 0.5M KCl), and the test compounds (final concentration of 10 μM in 50 mM MOPS, pH 7.0, 100 mM MgCl2, 0.5M KCl) were aliquoted onto black non-binding 384-well plates (Corning 3757) using the multidrop combi (ThermoFisherScientific) and pintool (V & P Scientific). The reaction mixtures were incubated at 37° C. for 45 minutes, then the reaction was quenched with 100 mM EDTA and fluorescence intensity was analyzed on a Tecan Infinite multimode plate reader (λex 520 nm, λem 560 nm, 5 nm bandwidth). Data were normalized to untreated wells and wells lacking the D135 ribozyme, and percent of inhibition was calculated using ActivityBase (IDBS). The Z′-factor was calculated as described (Zhang et al., 1999, J Biomol Screen, 4:67-73): Z′=1−3×(σp+σn)/|μp−μn|, • where μp and σn are mean value and standard deviation for the positive control (substrate only), and where μn and σn are mean value and standard deviation for the negative control (no compound). The average Z′-factor from the screen was 0.83±0.03. IC50 Measurement for the Small Molecule Inhibition of the D135 Ribozyme Cleavage Reaction.
Black 96-well plates (Corning 3695) were filled with 50 μl of solution containing 20 nM D135 ribozyme, 20 nM double-labeled substrate 17/2 DL and small molecule inhibitor in 50 mM MOPS, pH 7.0, 100 mM MgCl2 and 500 mM KCl. Small molecule inhibitors were tested at 19 different concentrations ranging from 5 nM to 1 mM. Plates were incubated at 37° C. for 10 minutes, then reaction mixtures were quenched with 100 mM EDTA and analyzed on the Synergy H1 plate reader (BioTek). Each experiment was performed in triplicate. Data were fit to a 4-parameter logistic function c+(d−c)/(1+(x/a)^b), where a is the IC50, b is the slope parameter, c is the minimum response and d is the maximum response. Data are reported as average±s.e.m

C. parapsilosis = test: MIC determination against C. parapsilosis; type: cell-based, Candida parapsilosis; conditions: Lodderomyces parapsilosis; RPMI-1640, 35° C. or 37° C., turbidity after 24 and 48 hours
Description: Minimal inhibitory concentrations (MICs) for C. parapsilosis were determined in a final volume of 100 μl. Fresh stock solutions of control antifungal drugs (Amphotericin B and Itraconazole) and of test compounds were prepared at 3.2 mg/ml and at 12.8 mg/ml respectively in DMSO. After placing the stock in the first well, solutions of test compounds and antifungal controls were serially diluted 1:2 with DMSO into the first […] successive wells of a 12-well row on a 96-well plate (as described above). After dilution, 2.5 μl from each of these 10 wells were transferred onto a separate 96-well plate and diluted with 122.5 μl of RPMI-1640 medium (Sigma). Wells 11 and 12 contained 2.5 μl DMSO and 122.5 μl of RPMI-1640 as a positive growth control (no compound) and sterility control (no inoculum added). A 50 μl volume was taken from each of the RPMI dilutions (wells 1-12) and transferred to the wells of a third 96-well plate (assay plate), where they were mixed with an equal volume (50 μl) of freshly prepared inoculum of C. parapsilosis in RPMI-1640 medium, set at a density to provide the 0.5×10^3 to 2.5×10^3 colony forming units per 1 mL (except for the sterility control). Sterility control was mixed with 50 μl of sterile medium.
The final concentration range of the assay was 0.25-128 μg/ml for test compounds and 0.0625-32 μg/ml for Amphotericin B and Itraconazole. The final concentration of DMSO was 1%. The assay plate was incubated at 35° C. or 37° C. and visually analyzed for turbidity after 24 and 48 hours of incubation. The lowest compound concentration at which no growth was apparent is reported as the MIC. All experiments were performed in triplicate.

HEK-293T cells = test: Cytotoxicity in HEK-293T cells (Cell Titer Glo); type: cell-based, human; conditions: Homo sapiens, cytotoxicity, 24 hours with compound, read-out: IC50 HEK-293
Description: HEK-293T cells were cultured in Dulbecco's Modified Eagle's Medium (DMEM) (Gibco) supplemented with 10% Fetal Bovine Serum (FBS, Gibco) and 100 U/ml of Penicillin-Streptomycin (Gibco) at 37° C. and 5% CO2. For the cytotoxicity experiments, cells were aliquoted into black 96-well plates with a clear bottom (Corning 3603) at a concentration of 10,000 cells per well. The cells were grown at 37° C., 5% CO2 for 5-6 hours, then the medium was replaced with the same medium without FBS and cells were grown at 37° C., 5% CO2 for 24 hours. Freshly prepared stock solutions of test compounds (12.8 mg/ml in DMSO) were serially diluted 1:2 with DMSO into the first 11 successive wells of a 12-well row on a 96-well plate as described above. Well 12 was used as a growth control (no compound). […] After incubation, cell viability was determined using the luminescent Cell Titer Glo cell viability assay (Promega), in which 100 μl of the assay reagent was added to each well of the assay plate. After gentle shaking for 7-10 minutes, the plates were analyzed on a Synergy H1 plate reader (BioTek). Luminescence was plotted against the compound concentration and IC50 values were determined by fitting the data to a 4-parameter logistic function c+(d−c)/(1+(x/a)^b), where a is the IC50, b is the slope parameter, c is the minimum response and d is the maximum response. Experiments were replicated to ensure reproducibility.

Structure (SMILES)	IC50 [1]	MIC (C. parapsilosis)	IC50 (HEK-293T cells)
COc1cc(/C=C2\Oc3cc(O)cc(O)c3C2=O)cc(OC)c1OC [APY-003]	> 500 µM	> 128 µg/mL	> 64 µg/mL
COc1cc(/C=C2\Oc3cc(O)cc(O)c3C2=O)cc(OC)c1 [APY-012]	> 500 µM	> 128 µg/mL	
O=C1/C(=C/c2cc(O)c(O)c(O)c2)Oc2ccccc21 [APY-024, (Z)-2-(3,4,5-Trihydroxybenzylidene)benzofuran-3(2H)-one]		8 µg/mL (≈ 29.6 µM)	23 ± 2 µg/mL
O=C(N/N=C/c1cc(F)c(O)c(F)c1)c1cc(O)c(O)c(O)c1 [APY-031]	6.3 µM	32 µg/mL (≈ 98.7 µM)	47.8 µg/mL
O=C(N/N=C/c1ccc(O)cc1)c1cc(O)c(O)c(O)c1 [APY-032]	10.6 µM	8 µg/mL (≈ 27.8 µM)	4.14 µg/mL
O=C(N/N=C/c1ccc(O)cc1Cl)c1cc(O)c(O)c(O)c1 [APY-033]	6.5 µM	8 µg/mL (≈ 24.8 µM)	50 µg/mL
O=C(N/N=C/c1ccc(O)c(Cl)c1)c1cc(O)c(O)c(O)c1 [APY-034]	4.7 µM	8 µg/mL (≈ 24.8 µM)	54.5 µg/mL
COc1cc(/C=N/NC(=O)c2cc(O)c(O)c(O)c2)cc(OC)c1O [APY-035]	7.7 µM	4 µg/mL (≈ 11.5 µM)	39.3 µg/mL
COc1cc(/C=N/NC(=O)c2cc(O)c(O)c(O)c2)cc(O)c1OC [APY-036]	7.7 µM	4 µg/mL (≈ 11.5 µM)	10.4 µg/mL
O=C(N/N=C/c1cccc(O)c1O)c1cc(O)c(O)c(O)c1 [APY-037]	3.7 µM	8 µg/mL (≈ 26.3 µM)	5.4 µg/mL
O=C(N/N=C/c1cccc(O)c1)c1cc(O)c(O)c(O)c1 [APY-040]	9.9 µM	8 µg/mL (≈ 27.8 µM)	30.1 µg/mL
COc1ccc(/C=N/NC(=O)c2cc(O)c(O)c(O)c2)cc1OC [APY-041]	3.8 µM	8 µg/mL (≈ 24.1 µM)	49.5 µg/mL
COc1cccc(/C=N/NC(=O)c2ccc(O)c(O)c2)c1O [APY-054]	> 500 µM	> 128 µg/mL	> 64 µg/mL
O=C(N/N=C/c1cncnc1)c1cc(O)c(O)c(O)c1 [APY-057]	12.9 µM	16 µg/mL (≈ 58.3 µM)	39.4 µg/mL
COc1ccc(/C=C/C=N/NC(=O)c2cc(O)c(O)c(O)c2)cc1 [APY-058]	10.1 µM	4 µg/mL (≈ 12.2 µM)	23 µg/mL
O=C(c1cc(O)c(O)c(O)c1)c1cc2ccccc2o1 [APY-068, Benzofuran-2-yl(3,4,5-trihydroxyphenyl)methanone]		16 µg/mL (≈ 59.2 µM)	1.3 ± 0.3 µg/mL

Structure (SMILES)	IC50 [1]	MIC (C. parapsilosis)	IC50 (HEK-293T cells)
O=C(c1cc(O)c(O)c(O)c1)N1CCc2ccccc2C1 [APY-085]	6.4 µM	32 µg/mL (≈ 112 µM)	18.7 µg/mL
O=C(c1cc(O)c(O)c(O)c1)N1CCC(c2ccccc2)C1 (stereo not drawn) [APY-086]	61 µM	64 µg/mL (≈ 214 µM)	43.7 µg/mL
O=C(c1cc(O)c(O)c(O)c1)N1CCC(c2ccccc2)CC1 [APY-087]	79 µM	32 µg/mL (≈ 102 µM)	8.4 µg/mL
O=C(c1cc(O)c(O)c(O)c1)N1CCC(c2noc3cc(F)ccc23)CC1 [APY-088]	24 µM	16 µg/mL (≈ 43 µM)	6.55 µg/mL
CCCCNS(=O)(=O)c1ccc(-c2ccc3oc(C(=O)c4cc(O)c(O)c(O)c4)cc3c2)cc1 [APY-094, N-Butyl-4-{2[(3,4,5-trihydroxyphenyl)carbonyl]-1-benzofuran-5-yl}benzene-1-sulfonamide]		8 to 16 µg/mL (≈ 16.6 to 33.2 µM)	15 ± 4 µg/mL
O=C(c1cc(O)c(O)c(O)c1)c1cc2cc(-c3ccc(C(=O)NC4CCCC4)c(Cl)c3)ccc2o1 [APY-095]		4 to 8 µg/mL (≈ 8.13 to 16.3 µM)	2.5 µg/mL
CCN(Cc1ccccc1)C(=O)c1ccc(-c2ccc3oc(C(=O)c4cc(O)c(O)c(O)c4)cc3c2)cc1 [APY-096]		2 to 4 µg/mL (≈ 3.94 to 7.88 µM)	1.4 µg/mL
O=C(O)c1ccc2oc(C(=O)c3cc(O)c(O)c(O)c3)cc2c1 [NED-2017]	> 1000 µM	16 to 32 µg/mL (≈ 50.9 to 102 µM)	
Cc1ccc(NC(=O)c2ccc3oc(C(=O)c4cc(O)c(O)c(O)c4)cc3c2)c(C)c1 [NED-2021, N-(2,4-dimethylphenyl)-2-(3,4,5-trihydroxybenzoyl)benzofuran-5-carboxamide]	> 1000 µM	32 to 64 µg/mL (≈ 76.7 to 153 µM)	
CC(C)N1CCN(C(=O)c2ccc3oc(C(=O)c4cc(O)c(O)c(O)c4)cc3c2)CC1 [NED-2022, (4-isopropylpiperazin-1-yl)(2-(3,4,5-trihydroxybenzoyl)-benzofuran-5-yl)methanone]	52 ± 12 µM	16 µg/mL (≈ 37.7 µM)	
COc1cc(/C=N/NC(=O)c2cc(O)c(O)c(O)c2)cc(OC)c1OC [NED-2039, (E)-3,4,5-trihydroxy-N′-(3,4,5-trimethoxybenzylidene)benzohydrazide]	6 ± 1 µM	8 µg/mL (≈ 22.1 µM)	
CCN(CC)CCNC(=O)c1c(C)[nH]c(/C=C/C(=O)c2cc(O)c(O)c(O)c2)c1C [NED-2041]	12 ± 4 µM	32 µg/mL (≈ 77 µM)	
Cc1[nH]c(/C=C/C(=O)c2cc(O)c(O)c(O)c2)c(C)c1C(=O)N1CCC(N(C)C)CC1 [NED-2042]	> 1000 µM	16 µg/mL (≈ 37.4 µM)	
NNC(=O)c1cc(O)c(O)c(O)c1 [NED-2047, 3,4,5-trihydroxybenzohydrazide]	77 ± 3 µM	16 to 32 µg/mL (≈ 86.9 to 174 µM)	
O=C(N/N=C/C1CCCCC1)c1cc(O)c(O)c(O)c1 [NED-2251, (E)-N′-(cyclohexylmethylene)-3,4,5-trihydroxybenzohydrazide]		16 to 32 µg/mL (≈ 57.5 to 115 µM)	
